Consider 12 compounds from ChEMBL document CHEMBL4382233, “Discovery of novel arylethenesulfonyl fluorides as potential candidates against methicillin-resistant of Staphylococcus aureus (MRSA) for overcoming multidrug resistance of bacterial infections” (2019).

≈ marks a conversion by molar mass, not a printed value.

Holding throughout (type): functional
Assay [1] deals with Staphylococcus aureus. Put plainly: Antibacterial activity against methicillin-resistant Staphylococcus aureus after overnight incubation by micro broth dilution analysis.
Assay [2] deals with Staphylococcus haemolyticus. Put plainly: Antibacterial activity against methicillin-resistant Staphylococcus haemolyticus assessed as zone of inhibition at 50 ug/mL after 24 hrs by agar disc diffusion method. To be noted: read-out: IZ.
Assay [3] has as its system Staphylococcus aureus. Description: Antibacterial activity against methicillin-resistant Staphylococcus aureus assessed as zone of inhibition at 200 ng/mL after 24 hrs by agar disc diffusion method. To be noted: read-out: IZ.
For assay [4], the system named is Staphylococcus haemolyticus. Description: Antibacterial activity against methicillin-resistant Staphylococcus haemolyticus after overnight incubation by micro broth dilution analysis.
Assay [5] concerns Staphylococcus aureus. Description: Antibacterial activity against methicillin-resistant Staphylococcus aureus assessed as zone of inhibition at 400 ng/mL after 24 hrs by agar disc diffusion method. To be noted: read-out: IZ.
Assay [6] deals with Staphylococcus epidermidis. Description: Antibacterial activity against methicillin-resistant Staphylococcus epidermidis after overnight incubation by micro broth dilution analysis.
Assay [7] relates to Staphylococcus aureus. Description: Antibacterial activity against methicillin-resistant Staphylococcus aureus assessed as zone of inhibition at 50 ug/mL after 24 hrs by agar disc diffusion method. To be noted: read-out: IZ.
The test system of assay [8] is Staphylococcus aureus. Description: Antibacterial activity against methicillin-resistant Staphylococcus aureus assessed as zone of inhibition at 800 ng/mL after 24 hrs by agar disc diffusion method. To be noted: read-out: IZ.
For assay [9], the system named is Staphylococcus epidermidis. Description: Antibacterial activity against methicillin-resistant Staphylococcus epidermidis assessed as zone of inhibition at 20 ug/mL after 24 hrs by agar disc diffusion method. The note with it: read-out: IZ.

For `O=S(=O)(F)/C=C/c1ccsc1`, the MIC99 against Staphylococcus aureus [1] was found to be 16.6 µg/mL (≈ 86.4 µM); in assay [4] it was 48 µg/mL (≈ 250 µM); in assay [6], 66.1 µg/mL (≈ 344 µM). For the same compound, the zone of inhibition at 50 µg/mL in assay [2] was determined as 4.52 mm; in the assay on Staphylococcus aureus [7], 8.2 mm. Further, the zone of inhibition at 0.2 µg/mL in the assay on Staphylococcus aureus [3] came out at 3.2 mm. Besides, in the assay with Staphylococcus aureus [5], the zone of inhibition at 0.4 µg/mL came to 4.2 mm. Also, the zone of inhibition at 0.8 µg/mL with Staphylococcus aureus [8] is 4.5 mm. In addition, the zone of inhibition at 20 µg/mL in assay [9] worked out at 8.5 mm.
Regarding `O=S(=O)(F)/C=C/c1cccc(F)c1`, the MIC99 against Staphylococcus aureus [1] was found to be 15.2 µg/mL (≈ 74.3 µM); in assay [4] it was 44.1 µg/mL (≈ 216 µM); in [6], 72.3 µg/mL (≈ 354 µM). Besides, the figures for the zone of inhibition at 50 µg/mL (in assay [2]; in the assay on Staphylococcus aureus [7]) were 4.2 mm and 9.1 mm, respectively. Moreover, the zone of inhibition at 0.2 µg/mL with Staphylococcus aureus [3] is 3.5 mm. Moreover, the zone of inhibition at 0.4 µg/mL with Staphylococcus aureus [5] came to 4.4 mm. Besides, in the assay on Staphylococcus aureus [8], the zone of inhibition at 0.8 µg/mL was 5.1 mm. Besides, the zone of inhibition at 20 µg/mL in assay [9] came to 3.5 mm.
Turning to `COc1ccc(Cl)cc1/C=C/S(=O)(=O)F`, the MIC99 in the assay with Staphylococcus aureus [1] worked out at 51.1 µg/mL (≈ 204 µM); in [4], 47 µg/mL (≈ 188 µM); in assay [6], 40.4 µg/mL (≈ 161 µM). Further, the zone of inhibition at 50 µg/mL in assay [2] is 5.2 mm; in the assay on Staphylococcus aureus [7], 5.1 mm. For the same compound, in assay [9], the zone of inhibition at 20 µg/mL was found to be 5.2 mm.
On to `O=S(=O)(F)/C=C/C=C/c1ccc(F)c(F)c1`, for which the MIC99 is 50.1 µg/mL (≈ 202 µM) in the assay on Staphylococcus aureus [1], 55.1 µg/mL (≈ 222 µM) in assay [4] and 51.6 µg/mL (≈ 208 µM) in assay [6]. In addition, the zone of inhibition at 50 µg/mL in [2] came to 4.3 mm; in the assay with Staphylococcus aureus [7], 6.1 mm. Also, the zone of inhibition at 20 µg/mL in [9] came to 5.5 mm.
As for `N#Cc1cccc(/C=C/C=C/S(=O)(=O)F)c1`, the MIC99 in the assay with Staphylococcus aureus [1] was determined as 41.2 µg/mL (≈ 174 µM); in assay [4], 51.2 µg/mL (≈ 216 µM); in [6] it was 50 µg/mL (≈ 211 µM). Moreover, the zone of inhibition at 50 µg/mL in assay [2] was 5.1 mm; in the assay on Staphylococcus aureus [7] it was 3.5 mm. The zone of inhibition at 20 µg/mL in assay [9] was 4.5 mm.
Consider `CC(C)(C)c1ccc(/C=C/C=C/S(=O)(=O)F)cc1`, for which the MIC99 with Staphylococcus aureus [1] worked out at 58.2 µg/mL (≈ 217 µM); in assay [4] it was 65.3 µg/mL (≈ 243 µM); in assay [6] it was 62.1 µg/mL (≈ 232 µM). Also, the zone of inhibition at 50 µg/mL in assay [2] amounted to 4.5 mm; in the assay with Staphylococcus aureus [7], 6.3 mm. The zone of inhibition at 20 µg/mL in assay [9] was 5.5 mm.
Consider `O=S(=O)(F)/C=C/C=C/c1ccc2ccccc2c1`, for which the MIC99 against Staphylococcus aureus [1] was 58 µg/mL (≈ 221 µM); in assay [4], 51 µg/mL (≈ 195 µM); in [6], 63 µg/mL (≈ 240 µM). Also, the zone of inhibition at 50 µg/mL worked out at 4.5 mm in [2] and 3.3 mm with Staphylococcus aureus [7]. The zone of inhibition at 20 µg/mL in assay [9] came out at 5.4 mm.
Take `O=S(=O)(F)/C=C/c1cccc(-c2ccccc2)c1`: the MIC99 turned out to be 40.1 µg/mL (≈ 153 µM) against Staphylococcus aureus [1], 40.2 µg/mL (≈ 153 µM) in assay [4] and 44.1 µg/mL (≈ 168 µM) in assay [6]. In addition, the zone of inhibition at 50 µg/mL stood at 5.2 mm in assay [2] and 7.8 mm with Staphylococcus aureus [7]. Moreover, the zone of inhibition at 20 µg/mL in [9] amounted to 5.5 mm.
Take `COc1ccc(/C=C/S(=O)(=O)F)cc1`: the MIC99 with Staphylococcus aureus [1] came to 48.1 µg/mL (≈ 222 µM); in assay [4], 68.2 µg/mL (≈ 315 µM); in assay [6] it was 51.3 µg/mL (≈ 237 µM). For the same compound, the zone of inhibition at 50 µg/mL in assay [2] stood at 6.3 mm; in the assay on Staphylococcus aureus [7], 52 mm. In assay [9], the zone of inhibition at 20 µg/mL was 60.4 mm.
Consider `O=Cc1ccccc1/C=C/S(=O)(=O)F`, for which the MIC99 against Staphylococcus aureus [1] was 47.2 µg/mL (≈ 220 µM); in [4], 44.1 µg/mL (≈ 206 µM); in assay [6] it was 52.1 µg/mL (≈ 243 µM). For the same compound, the zone of inhibition at 50 µg/mL is 4.2 mm in [2] and 6.1 mm in the assay with Staphylococcus aureus [7]. Besides, the zone of inhibition at 20 µg/mL in assay [9] was 4.3 mm.
Take `COc1cc(/C=C/S(=O)(=O)F)cc(OC)c1`: the figures for the MIC99 (with Staphylococcus aureus [1]; in [4]; in [6]) were 0.81 µg/mL (≈ 3.29 µM), 50 µg/mL (≈ 203 µM) and 57.1 µg/mL (≈ 232 µM), respectively. Also, the zone of inhibition at 50 µg/mL in assay [2] is 4.5 mm; in the assay on Staphylococcus aureus [7], 18.1 mm. In addition, the zone of inhibition at 0.2 µg/mL in the assay with Staphylococcus aureus [3] worked out at 1.2 mm. For the same compound, the zone of inhibition at 0.4 µg/mL in the assay with Staphylococcus aureus [5] is 13.1 mm. Moreover, the zone of inhibition at 0.8 µg/mL with Staphylococcus aureus [8] stood at 15.1 mm. Further, the zone of inhibition at 20 µg/mL in [9] worked out at 5.3 mm.
On to `O=S(=O)(F)/C=C/c1ccc(Oc2ccccc2)cc1`, for which the MIC99 against Staphylococcus aureus [1] is 51.2 µg/mL (≈ 184 µM); in [4] it was 61.1 µg/mL (≈ 220 µM); in assay [6], 44.2 µg/mL (≈ 159 µM). For the same compound, the zone of inhibition at 50 µg/mL worked out at 4.1 mm in assay [2] and 4.4 mm with Staphylococcus aureus [7]. In addition, the zone of inhibition at 20 µg/mL in assay [9] was determined as 6.4 mm.
